The record followed here is ChEMBL document CHEMBL3259577, “Antagonists of the kappa opioid receptor” (Bioorg Med Chem Lett, 2014).

Each structure is given as a SMILES string.

Data set [1] addresses Muscarinic acetylcholine receptor M1 (Homo sapiens, UniProt P11229). Description: Binding affinity to muscarinic M1 receptor (unknown origin).
For data set [2], the target named is 5-hydroxytryptamine receptor 2B (Homo sapiens, UniProt P41595). Description: Binding affinity to 5-HT2B receptor (unknown origin).
Data set [3] has as its target Delta-type opioid receptor (Homo sapiens, UniProt P41143). Description: Inhibition of delta opioid receptor (unknown origin) using SNC-80 by high content imaging beta-arrestin translocation assay.
Data set [4] has as its target Sigma non-opioid intracellular receptor 1 (Homo sapiens, UniProt Q99720). Description: Binding affinity to sigma-1 receptor (unknown origin).
For data set [5], the target named is Muscarinic acetylcholine receptor M4 (Homo sapiens, UniProt P08173). Description: Binding affinity to muscarinic M4 receptor (unknown origin).
The target of data set [6] is Alpha-2C adrenergic receptor (Homo sapiens, UniProt P18825). Description: Binding affinity to adrenergic alpha2C receptor (unknown origin).
Data set [7] is described as follows: Drug metabolism in human liver microsomes assessed as compound remaining after 1 hr. In kind it is ADME. The note with it: read-out: Drug metabolism.
The target of data set [8] is Muscarinic acetylcholine receptor M2 (Homo sapiens, UniProt P08172). In words: Binding affinity to muscarinic M2 receptor (unknown origin).
Another data set has as its target Histamine H1 receptor (Homo sapiens, UniProt P35367). Description: Binding affinity to histamine H1 receptor (unknown origin).
A further data set deals with Mu-type opioid receptor (Homo sapiens, UniProt P35372). In words: Inhibition of mu opioid receptor (unknown origin) using DAMGO by high content imaging beta-arrestin translocation assay.
For data set [9], the target named is Sodium-dependent noradrenaline transporter (Homo sapiens, UniProt P23975). In words: Binding affinity to NET (unknown origin).
Data set [10] concerns the target Muscarinic acetylcholine receptor M3 (Homo sapiens, UniProt P20309). In words: Binding affinity to muscarinic M3 receptor (unknown origin).

Sequence of Sigma non-opioid intracellular receptor 1 (Q99720 whole entry): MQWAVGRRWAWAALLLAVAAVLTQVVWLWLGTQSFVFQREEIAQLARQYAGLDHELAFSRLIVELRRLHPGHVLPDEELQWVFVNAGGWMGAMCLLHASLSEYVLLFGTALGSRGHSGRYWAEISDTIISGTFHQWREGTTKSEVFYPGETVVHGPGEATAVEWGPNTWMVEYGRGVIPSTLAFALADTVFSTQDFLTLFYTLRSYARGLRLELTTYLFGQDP
Sequence of Sodium-dependent noradrenaline transporter (P23975 whole entry): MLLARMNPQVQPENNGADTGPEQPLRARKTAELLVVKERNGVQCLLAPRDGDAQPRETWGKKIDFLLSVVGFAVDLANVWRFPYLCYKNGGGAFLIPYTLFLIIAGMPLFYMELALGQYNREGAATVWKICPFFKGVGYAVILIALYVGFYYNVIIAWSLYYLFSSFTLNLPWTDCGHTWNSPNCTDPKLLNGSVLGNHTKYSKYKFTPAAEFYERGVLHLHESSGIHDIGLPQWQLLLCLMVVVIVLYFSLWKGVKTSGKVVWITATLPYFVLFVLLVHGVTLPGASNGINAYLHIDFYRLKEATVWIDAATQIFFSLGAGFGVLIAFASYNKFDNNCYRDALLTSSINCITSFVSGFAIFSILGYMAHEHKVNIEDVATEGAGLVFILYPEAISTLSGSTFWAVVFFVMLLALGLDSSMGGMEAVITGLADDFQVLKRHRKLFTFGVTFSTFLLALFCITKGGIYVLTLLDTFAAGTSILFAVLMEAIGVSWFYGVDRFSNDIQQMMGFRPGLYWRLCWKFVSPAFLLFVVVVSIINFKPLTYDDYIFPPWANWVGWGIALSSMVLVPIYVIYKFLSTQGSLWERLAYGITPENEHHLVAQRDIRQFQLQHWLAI
Sequence of Muscarinic acetylcholine receptor M2 (P08172 whole entry): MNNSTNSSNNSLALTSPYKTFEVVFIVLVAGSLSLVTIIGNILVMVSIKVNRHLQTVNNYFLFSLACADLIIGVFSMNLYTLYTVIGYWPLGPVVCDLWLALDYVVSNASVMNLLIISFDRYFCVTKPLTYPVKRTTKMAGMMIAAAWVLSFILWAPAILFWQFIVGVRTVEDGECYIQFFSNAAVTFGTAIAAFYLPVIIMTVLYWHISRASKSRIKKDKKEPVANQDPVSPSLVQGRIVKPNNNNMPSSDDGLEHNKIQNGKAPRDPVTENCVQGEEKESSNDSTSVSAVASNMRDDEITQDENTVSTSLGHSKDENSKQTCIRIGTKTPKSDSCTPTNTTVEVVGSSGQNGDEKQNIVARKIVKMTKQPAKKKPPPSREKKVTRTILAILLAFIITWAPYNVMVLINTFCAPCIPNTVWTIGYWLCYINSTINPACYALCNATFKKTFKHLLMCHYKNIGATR
Sequence of Muscarinic acetylcholine receptor M4 (P08173 whole entry): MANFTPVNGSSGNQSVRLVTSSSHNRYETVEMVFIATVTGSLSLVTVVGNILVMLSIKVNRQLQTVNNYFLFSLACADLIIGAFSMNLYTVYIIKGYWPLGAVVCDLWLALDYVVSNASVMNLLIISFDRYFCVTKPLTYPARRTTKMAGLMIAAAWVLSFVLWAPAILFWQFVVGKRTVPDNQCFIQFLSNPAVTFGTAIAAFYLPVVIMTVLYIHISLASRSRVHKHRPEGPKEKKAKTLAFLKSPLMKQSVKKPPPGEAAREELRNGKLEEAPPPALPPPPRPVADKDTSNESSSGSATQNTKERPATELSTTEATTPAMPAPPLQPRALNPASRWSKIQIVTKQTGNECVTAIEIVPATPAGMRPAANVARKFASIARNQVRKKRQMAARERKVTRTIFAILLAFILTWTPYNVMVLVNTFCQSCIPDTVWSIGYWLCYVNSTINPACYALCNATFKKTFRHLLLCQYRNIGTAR
Sequence of Delta-type opioid receptor (P41143 whole entry): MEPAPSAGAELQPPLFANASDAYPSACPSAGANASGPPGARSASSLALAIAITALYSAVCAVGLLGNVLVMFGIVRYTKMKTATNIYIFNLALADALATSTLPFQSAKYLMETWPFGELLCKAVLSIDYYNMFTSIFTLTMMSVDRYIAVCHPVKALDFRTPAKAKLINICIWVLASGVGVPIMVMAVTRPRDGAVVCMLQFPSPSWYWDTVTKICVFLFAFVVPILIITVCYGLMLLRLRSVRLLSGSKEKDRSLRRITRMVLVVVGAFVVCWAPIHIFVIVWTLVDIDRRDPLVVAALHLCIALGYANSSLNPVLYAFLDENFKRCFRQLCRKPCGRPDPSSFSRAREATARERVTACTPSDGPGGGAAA
Sequence of Alpha-2C adrenergic receptor (P18825 whole entry): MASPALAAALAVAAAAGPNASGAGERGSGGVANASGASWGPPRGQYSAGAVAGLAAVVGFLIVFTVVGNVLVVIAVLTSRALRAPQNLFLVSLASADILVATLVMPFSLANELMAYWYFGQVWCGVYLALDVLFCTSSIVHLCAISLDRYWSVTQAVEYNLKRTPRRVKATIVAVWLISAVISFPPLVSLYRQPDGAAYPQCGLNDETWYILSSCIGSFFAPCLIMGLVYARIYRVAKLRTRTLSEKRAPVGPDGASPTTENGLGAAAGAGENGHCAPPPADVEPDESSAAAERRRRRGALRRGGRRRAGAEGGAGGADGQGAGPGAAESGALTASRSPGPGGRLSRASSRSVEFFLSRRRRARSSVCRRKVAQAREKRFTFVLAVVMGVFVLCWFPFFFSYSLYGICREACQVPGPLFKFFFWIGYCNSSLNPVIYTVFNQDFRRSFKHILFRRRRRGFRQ
Sequence of 5-hydroxytryptamine receptor 2B (P41595 whole entry): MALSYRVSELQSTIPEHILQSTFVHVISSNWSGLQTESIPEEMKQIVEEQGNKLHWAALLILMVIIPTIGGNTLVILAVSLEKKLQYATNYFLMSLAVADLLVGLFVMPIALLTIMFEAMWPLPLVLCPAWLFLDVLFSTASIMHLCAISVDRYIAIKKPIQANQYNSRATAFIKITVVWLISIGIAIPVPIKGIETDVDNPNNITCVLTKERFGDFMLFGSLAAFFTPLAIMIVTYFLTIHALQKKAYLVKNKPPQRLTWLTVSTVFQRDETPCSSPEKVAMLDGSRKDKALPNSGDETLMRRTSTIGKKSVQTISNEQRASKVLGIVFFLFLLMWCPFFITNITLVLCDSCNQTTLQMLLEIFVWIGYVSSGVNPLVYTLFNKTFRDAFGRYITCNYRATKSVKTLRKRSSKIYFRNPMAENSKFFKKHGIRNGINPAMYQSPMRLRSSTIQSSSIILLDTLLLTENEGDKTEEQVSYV
Sequence of Muscarinic acetylcholine receptor M3 (P20309 whole entry): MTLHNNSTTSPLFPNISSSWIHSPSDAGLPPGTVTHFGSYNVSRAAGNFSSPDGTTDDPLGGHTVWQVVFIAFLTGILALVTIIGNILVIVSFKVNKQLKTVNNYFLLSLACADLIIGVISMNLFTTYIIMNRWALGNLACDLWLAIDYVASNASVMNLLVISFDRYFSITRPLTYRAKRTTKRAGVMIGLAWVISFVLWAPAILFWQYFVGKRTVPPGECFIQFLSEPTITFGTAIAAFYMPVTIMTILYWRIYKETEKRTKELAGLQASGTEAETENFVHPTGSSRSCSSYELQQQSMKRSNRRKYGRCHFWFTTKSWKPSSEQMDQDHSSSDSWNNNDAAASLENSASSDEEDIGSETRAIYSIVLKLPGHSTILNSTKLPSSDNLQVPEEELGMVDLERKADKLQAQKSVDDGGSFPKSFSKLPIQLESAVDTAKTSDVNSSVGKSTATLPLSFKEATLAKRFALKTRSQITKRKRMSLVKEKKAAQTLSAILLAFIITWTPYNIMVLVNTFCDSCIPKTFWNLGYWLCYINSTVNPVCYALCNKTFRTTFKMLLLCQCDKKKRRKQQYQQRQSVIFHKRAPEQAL
Sequence of Muscarinic acetylcholine receptor M1 (P11229 whole entry): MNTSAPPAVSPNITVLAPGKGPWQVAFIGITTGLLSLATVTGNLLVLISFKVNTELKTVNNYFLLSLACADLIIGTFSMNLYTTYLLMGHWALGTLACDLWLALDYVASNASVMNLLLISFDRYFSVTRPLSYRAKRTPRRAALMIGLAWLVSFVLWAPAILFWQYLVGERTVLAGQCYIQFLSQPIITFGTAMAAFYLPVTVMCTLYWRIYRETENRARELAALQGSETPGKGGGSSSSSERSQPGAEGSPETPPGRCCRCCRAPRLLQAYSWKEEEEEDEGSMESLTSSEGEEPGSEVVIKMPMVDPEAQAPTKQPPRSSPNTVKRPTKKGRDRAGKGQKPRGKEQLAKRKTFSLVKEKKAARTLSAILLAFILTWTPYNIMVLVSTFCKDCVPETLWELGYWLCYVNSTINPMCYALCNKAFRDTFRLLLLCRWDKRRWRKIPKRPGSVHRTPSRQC
Sequence of Histamine H1 receptor (P35367 whole entry): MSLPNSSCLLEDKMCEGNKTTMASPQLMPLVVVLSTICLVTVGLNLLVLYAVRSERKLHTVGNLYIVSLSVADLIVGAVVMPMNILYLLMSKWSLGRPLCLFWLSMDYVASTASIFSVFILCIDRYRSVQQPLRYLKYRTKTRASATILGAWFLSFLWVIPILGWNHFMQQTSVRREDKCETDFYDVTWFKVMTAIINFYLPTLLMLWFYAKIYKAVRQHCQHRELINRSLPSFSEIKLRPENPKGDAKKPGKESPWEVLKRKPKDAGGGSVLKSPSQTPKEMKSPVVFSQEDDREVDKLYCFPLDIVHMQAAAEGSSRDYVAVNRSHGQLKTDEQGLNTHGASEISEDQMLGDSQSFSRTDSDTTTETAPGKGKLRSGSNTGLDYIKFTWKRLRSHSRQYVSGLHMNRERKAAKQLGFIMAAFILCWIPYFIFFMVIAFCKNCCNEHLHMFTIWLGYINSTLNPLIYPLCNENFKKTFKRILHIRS

As to `Cc1ccc(S(=O)(=O)NCc2ccc(C(=O)NCCN(Cc3ccccc3)C(C)C)cc2)cc1`, the Ki in data set [1], in data set [2], in data set [4], in [5], in [6] and in [8] was < 1000 nM throughout. Further, the Ki (on Histamine H1 receptor; in data set [9]; in [10]) was < 1000 nM each time. The IC50 is > 32000 nM in data set [3] and > 24000 nM on Mu-type opioid receptor. Further, in data set [7], the remaining at 1 h came to 0.07%.
